Assay results: patent publication US9000033B2, “Composition for improving skin condition and appearance” (Arch Personal Care Products, L.P., priority 2008, dated 2015)

Legend:
[1] = system: COL1A1 (collagen 1A1 gene); assay: Human gene microarray, Type 1A1 Collagen gene expression in normal human dermal fibroblasts; assay type: cell-based; conditions: for expression levels of collagen 1A1 gene: an appropriate amount
Procedure: (§1) Normal human dermal fibroblasts were grown in culture flasks until confluent using appropriate culture conditions. […] A separate flask of cells was treated with culture media alone and acted as an untreated control. After applying the test material the cells the cells were incubated for 24 hours at 37±2° C. and 5±1% CO2. At the end of the incubation period the culture media was removed via aspiration and the cells were washed once with cold phosphate buffered saline. After removing the wash the cells they were lysed by adding 700 μl of guanidinium thiocyanate lysis solution. The cell lysate was stored at −75° C. until the RNA extraction process could be completed (see below).
(§2) To the cell lysates prepared above, an equal volume of 64% ethanol was added and the tubes were vortexed. After combining, up to 700 μl of the mixture was transferred to a glass fiber filter cartridge, and the cartridge was loaded into a 1.5 ml collection tube and the cartridge was centrifuged for 1 minute at 14,000 RPM. The flow through was discarded and any remaining mixture was loaded into the filter cartridge and the centrifugation process was repeated until all of the mixture had been processed. The filter was then washed to remove any residual cellular debris from the RNA bound to the glass fibers by subsequently applying 700 μl of wash solution 1 (1 time) and 500 μl of wash solution 2 (2 times) to the filter cartridge and centrifuging at 14,000 RPM for 1 minute to pass each wash through the cartridge. After each wash the flowthrough was discarded. After the final wash one final spin was performed without wash solution to remove any residual wash solution in the filter cartridge. The RNA bound to the glass fibers within the cartridge was eluted by applying 30 μl of Tris-EDTA buffer (10 mM Tris-HCl, 1 mM EDTA, preheated to 70-80° C.) to the cartridge and centrifuging the cartridge in a new collection tube at 14,000 RPM for one minute. The elution process was repeated with an additional 30 μl of preheated TE buffer. After the RNA was eluted its concentration was quantified using a Ribogreen assay.
(§3) mRNA Amplification (Ambion MessageAmnp aRNA kit) First Strand cDNA Synthesis: To start the first strand synthesis, 5 μg of total RNA for each sample was added to 600 μl PCR tubes and the total volume of liquid in the tube was adjusted to 12 μl with DEPC H2O. To each tube, 1 μl of T7 Oligo(dT) primer was added and the tube was incubated at 70±2° C. for 10 minutes to denature the RNA and then placed on ice to allow the primer to anneal to the poly A ends of the mRNA. After cooling 2 μl of 10× first strand buffer, 1 μl of RNAse inhibitor and 4 μl of dNTP Mix were added to each tube, and each tube was placed at 42° C. 1 μl of Reverse Transcriptase was added and the tubes were heated and maintained at 42±2° C. for 2 hours. […]
(§4) Second Strand Synthesis and cDNA Purification: For the synthesis of the second strand of cDNA the following items were added to the tubes above (in this order): 63 μl DEPC H2O, 10 μl 10× second strand buffer, 4 μl dNTP mix, 2 μl DNA Polymerase and 1 μl of RNAse H. The tube was mixed and then incubated at 16±2° C. for 2 hours. Towards the end of the 2 hour incubation a sufficient quantity of DEPC H2O was warmed to 50±2° C. and a cDNA purification filter cartridge was equilibrated with 50 μl of cDNA binding buffer (one cartridge per sample) for at least 5 minutes. […]

ELN (elastin gene) = assay: Human gene microarray, Elastin gene expression in normal human dermal fibroblasts; assay type: cell-based; conditions: for expression levels of elastin gene: an appropriate amount
Procedure: as §1, §2, §3, §4

[2] = concentration from 0.0001 to 0.05%
[3] = normal human dermal fibroblasts, 0.05%
[4] = normal human dermal fibroblasts, 0.05% pomiferin, 24 hours, fluorescence intensity, Cy5 (treated) channel

Row | Structure (SMILES) | expression levels of collagen 1A1 gene [1] | expression levels of elastin gene (ELN (elastin gene)) | increasing collagen 1A1 gene expression [1, 2] | collagen 1A1 gene expression compared to untreated cells [1, 3] | F635 Median, COL1A1 [1, 4] | increasing elastin gene expression (ELN (elastin gene); [2]) | elastin gene expression compared to untreated cells (ELN (elastin gene); [3]) | F635 Median, ELN (ELN (elastin gene); [4])
1 | CC(C)=CCc1c2c(c3occ(-c4ccc(O)cc4)c(=O)c3c1O)C=CC(C)(C)O2 [osajin] | significantly increase | significantly increase | – | – | – | – | – | –
2 | CC(C)=CCc1c2c(c3occ(-c4ccc(O)c(O)c4)c(=O)c3c1O)C=CC(C)(C)O2 [pomiferin] | significantly increase | significantly increase | equally effective | statistically significant increase | 38576 | equally effective | statistically significant increase | 3010
